From patent EP2647638A1, “Substituted tricyclic compounds with activity towards ep1 receptors” (Almirall, S.A., priority 2012, dated 2013)

Biological target: T1, human EP1 receptor (Homo sapiens, UniProt P34995)
T1 construct: expressed in transfected cells; host or cells: HEK-293 cell membranes
T1 sequence (P34995 1-402): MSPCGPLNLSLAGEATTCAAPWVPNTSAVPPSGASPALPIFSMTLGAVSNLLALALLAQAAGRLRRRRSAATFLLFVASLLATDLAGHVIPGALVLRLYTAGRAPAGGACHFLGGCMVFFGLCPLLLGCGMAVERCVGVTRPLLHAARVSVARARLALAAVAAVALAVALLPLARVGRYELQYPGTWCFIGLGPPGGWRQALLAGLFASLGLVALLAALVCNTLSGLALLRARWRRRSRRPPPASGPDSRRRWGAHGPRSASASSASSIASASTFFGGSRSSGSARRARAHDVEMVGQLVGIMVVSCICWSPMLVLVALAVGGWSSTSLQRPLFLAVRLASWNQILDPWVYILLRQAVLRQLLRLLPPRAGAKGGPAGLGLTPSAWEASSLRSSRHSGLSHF
Assay: Human EP1 receptor radioligand binding assay
Details: transfected HEK-293 cell membranes, [3H]-PGE2 (10 nM), pH 6.0, 25 °C for 60 minutes
Method: To investigate binding properties of EP1 receptor ligands to human EP1 receptor, transfected HEK-293 cell membranes and [3H]-PGE2 (Perkin Elmer) were used. In 96-well plates the assay was carried out with a total reaction volume of 250 µl, containing 25 µl of membrane suspension (30 µg protein/well), 25 µl of [3H]-PGE2 (10 nM) in either absence or presence of 25 µl of either buffer or PGE2 (10 µM) for total and non-specific binding, respectively. Binding buffer contained 10 mM MES, 1 mM MgCl2 and 1 mM EDTA at pH 6.0. Plates were incubated at 25 °C for 60 minutes. After the incubation period, 200 µl of incubate were transferred to MultiScreen HTS, FB plates (Millipore), filtered and plates were washed 6 times with ice-cold 10 mM MES, 1 mM MgCl2 and 1 mM EDTA at pH 6.0. Filters were dried and counted in a MicroBeta scintillation counter (Perkin-Elmer) using EcoScint liquid scintillation cocktail.
Percentage inhibition was calculated relating compounds activity to the 0% inhibition of the wells incubated with 10 nM [3H]-PGE2 alone (total binding) and 100% inhibition of the wells incubated with 10 nM [3H]-PGE2 plus 10 µM PGE2 (non-specific binding). Competition binding curves were carried out by assaying 6 different concentrations with duplicated points. The inhibition constant (Ki) of each compound was calculated by the Cheng-Prusoff equation: Kl = IC50 /(1+⌊L⌋/KD) [formula] where IC50 is the concentration of compound that displaces the binding of radioligand by 50%, [L] is the free concentration of radioligand and KD is the dissociation constant of each radioligand. IC50 values were obtained by fitting the data with non-linear regression using XIFit software (IDBS).

Compound: O=C(O)c1ccc([C@@H]2Nc3ccc(Br)cc3[C@@H]3OCCC[C@H]23)cc1 [Example 2, 4-((4aR,5R,10bR)-9-bromo-3,4,4a,5,6,10b-hexahydro-2H-pyrano[3,2-c]quinolin-5-yl)benzoic acid]
- Ki: > 0.5 µM

Compound: Cc1ccc2c(c1)[C@@H]1OCCC[C@@H]1[C@H](c1ccc(C(=O)O)cc1C)N2 [Example 6, 4-((4aR, 5R, 10bR)-3,4,4a, 5,6, 10b-hexahydro-9-methyl-2H pyrano[3,2-c]quinolin-5-yl)-3-methylbenzoic acid]
- Ki: 0.1 to 0.5 µM

Compound: Cc1cc(C(=O)O)ccc1[C@H]1Nc2ccc(Cl)cc2[C@@H]2OCCC[C@H]12 (racemic) [Example 10, 4-((4aR, 5S, 10bR)-9-chloro-3,4,4a, 5,6, 10b-hexahydro-2H pyrano[3,2-c]quinolin-5-yl)-3-methylbenzoic acid]
- Ki: < 0.1 µM

Compound: COc1ccc2c(c1)[C@@H]1OCCC[C@@H]1[C@H](c1ccc(C(=O)O)cc1C)N2 [Example 5, 4-((4aR, 5R, 10bR)-3,4,4a, 5,6, 10b-hexahydro-9-methoxy-2H pyrano[3,2-c]quinolin-5-yl)-3-methylbenzoic acid]
- Ki: 0.1 to 0.5 µM
